Laboratory results as given in patent EP0357061B1, “Angiogenesis inhibitory agent” (priority 1988, dated 1990).
Structures can show the parent of a compound that is named as a salt. Marks after values point to notes of the source that are not given here.

System: bFGF-induced angiogenesis
Test: rat cornea micropocket method (angiogenesis inhibitory activity)
Assay type: in vivo, Sprague-Dawley rats
Details: rats with angiogenesis inhibitory activity / rats tested, sample pellet 20 »g
Description: The product compound (I) obtained in the examples given below were evaluated for angiogenesis inhibitory activity by the rat cornea micropocket method.
Essentially the method of Gimbrone et al. [J. National Cancer Institute, 52, 413-419 (1974)] was followed. Thus, adult male Sprague-Dawley rats (11 to 16 weeks of age) were anesthetized with nembutal and locally anesthetized by instillation of xylocaine eyedrops onto the eyeball. The cornea was incised to a length of about 2 mm at about 2mm inside from the corneal circumference by means of an injection needle, and a sustained release pellet containing basic fibroblast growth factor (bFGF; bovine brain-derived, purified product; R & D) and a sustained release pellet containing the test sample were inserted side by side into the incision so that the bFGF pellet was located on the central side in the cornea. In the control group, the bFGF pellet and a sample-free pellet were inserted into the cornea. After 7 days and after 10 days, the cornea was observed under a stereoscopic microscope.
The sustained release pellets were prepared in the following manner. An ethylene-vinyl acetate copolymer (Takeda Chemical Industries) was dissolved in dichloromethane to a concentration of 8%. A 3-»l portion of the solution was air-dried on a glass dish, an aqueous solution of bFGF (250 ng) was then placed thereon and air-dried and, finally 3 »l of the above ethylene-vinyl acetate copolymer solution was placed further thereon and air-dried to give a laminate consisting of two copolymer layers and a bFGF layer sandwiched therebetween. This sandwich sheet was made round into a bFGF pellet. The test sample pellets were prepared by dissolving each sample in ethanol in a concentration of 20 »g/2 »l, mixing the solution (2 »l) with 6 »l of an ethylene-vinyl acetate copolymer solution, air-drying the mixed solution on a glass dish and making the thus-obtained sheet round.

Structure (SMILES): CO[C@@H]1[C@H](OC(=O)CCC(=O)O)CC[C@]2(CO2)[C@H]1[C@@]1(C)O[C@@H]1CC=C(C)C [Example 2, Sodium salt of O-(3-carboxypropionyl)fumagillol]
- Inhibition rate (judged after 10 days): 6/6

Structure (SMILES): CO[C@@H]1[C@H](OC(=O)CCCC(=O)O)CC[C@]2(CO2)[C@H]1[C@@]1(C)O[C@@H]1CC=C(C)C [Example 4, Sodium salt of O-(4-carboxybutanoyl)fumagillol]
- Inhibition rate (judged after 10 days): 6/7

Structure (SMILES): CO[C@@H]1[C@H](OC(=O)COCC(=O)O)CC[C@]2(CO2)[C@H]1[C@@]1(C)O[C@@H]1CC=C(C)C [Example 5, O-Carboxymethoxyacetylfumagillol]
- Inhibition rate (judged after 7 days): 8/8*

Structure (SMILES): CO[C@@H]1[C@H](OC(=O)c2ccccc2C(=O)O)CC[C@]2(CO2)[C@H]1[C@@]1(C)O[C@@H]1CC=C(C)C [Example 6, O-(2-Carboxybenzoyl)fumagillol]
- Inhibition rate (judged after 10 days): 6/7

Structure (SMILES): CO[C@@H]1[C@H](OC(=O)Nc2ccccc2)CC[C@]2(CO2)[C@H]1[C@@]1(C)O[C@@H]1CC=C(C)C [Example 11, O-Phenylcarbamoylfumagillol]
- Inhibition rate (judged after 7 days): 9/9*

Structure (SMILES): CO[C@@H]1[C@H](OC)CC[C@]2(CO2)[C@H]1[C@@]1(C)O[C@@H]1CC=C(C)C [Example 14, O-Methylfumagillol]
- Inhibition rate (judged after 10 days): 4/8

Structure (SMILES): CO[C@@H]1[C@H](OCc2ccccc2)CC[C@]2(CO2)[C@H]1[C@@]1(C)O[C@@H]1CC=C(C)C [Example 17, O-Benzylfumagillol]
- Inhibition rate (judged after 7 days): 7/8*

Structure (SMILES): CO[C@@H]1[C@H](OCc2ccc(Br)cc2)CC[C@]2(CO2)[C@H]1[C@@]1(C)O[C@@H]1CC=C(C)C [Example 18, O-(p-Bromobenzyl)fumagillol]
- Inhibition rate (judged after 10 days): 7/7

Structure (SMILES): CO[C@@H]1[C@H](OS(=O)(=O)c2ccc(C)cc2)CC[C@]2(CO2)[C@H]1[C@@]1(C)O[C@@H]1CC=C(C)C [Example 20, O-(p-Toluenesulfonyl)fumagillol]
- Inhibition rate (judged after 10 days): 3/4

Structure (SMILES): CO[C@@H]1[C@H](OS(C)(=O)=O)CC[C@]2(CO2)[C@H]1[C@@]1(C)O[C@@H]1CC=C(C)C [Example 21, O-Methylsulfonylfumagillol]
- Inhibition rate (judged after 10 days): 4/4

Structure (SMILES): CO[C@@H]1[C@H](OC(=O)Oc2ccccc2)CC[C@]2(CO2)[C@H]1[C@@]1(C)O[C@@H]1CC=C(C)C [Example 22, O-Phenoxycarbonylfumagillol]
- Inhibition rate (judged after 10 days): 5/8

Structure (SMILES): CO[C@@H]1[C@H](OC(N)=O)CC[C@]2(CO2)[C@H]1[C@@]1(C)O[C@@H]1CC=C(C)C [Example 23, O-Carbamoylfumagillol]
- Inhibition rate (judged after 10 days): 6/8

Structure (SMILES): CO[C@@H]1[C@H](OC(=O)N2CCOCC2)CC[C@]2(CO2)[C@H]1[C@@]1(C)O[C@@H]1CC=C(C)C [Example 24, O-Morpholinocarbonylfumagillol]
- Inhibition rate (judged after 10 days): 5/12

Structure (SMILES): CO[C@@H]1[C@H](OC(=O)N2CCCCC2)CC[C@]2(CO2)[C@H]1[C@@]1(C)O[C@@H]1CC=C(C)C [Example 25, O-Piperidinocarbonylfumagillol]
- Inhibition rate (judged after 10 days): 6/8

Structure (SMILES): CO[C@@H]1[C@H](OC(=O)NN)CC[C@]2(CO2)[C@H]1[C@@]1(C)O[C@@H]1CC=C(C)C [Example 26, O-Carbazoylfumagillol]
- Inhibition rate (judged after 10 days): 6/6

Structure (SMILES): CO[C@@H]1[C@H](OC(=O)n2ccnc2)CC[C@]2(CO2)[C@H]1[C@@]1(C)O[C@@H]1CC=C(C)C [Example 27, O-(1-Imidazolylcarbonyl)fumagillol]
- Inhibition rate (judged after 10 days): 3/7

Structure (SMILES): CO[C@@H]1[C@H](OC(=O)NCCN(C)C)CC[C@]2(CO2)[C@H]1[C@@]1(C)O[C@@H]1CC=C(C)C [Example 28, O-(2-Dimethylaminoethylcarbamoyl)fumagillol]
- Inhibition rate (judged after 10 days): 11/11

Structure (SMILES): CO[C@@H]1[C@H](OC(=O)NC(C)=O)CC[C@]2(CO2)[C@H]1[C@@]1(C)O[C@@H]1CC=C(C)C [Example 29, O-Acetylcarbamoylfumagillol]
- Inhibition rate (judged after 10 days): 7/7

Structure (SMILES): CO[C@@H]1[C@H](OC(=O)NC(=O)C(Cl)Cl)CC[C@]2(CO2)[C@H]1[C@@]1(C)O[C@@H]1CC=C(C)C [Example 30, O-Dichloroacetylcarbamoylfumagillol]
- Inhibition rate (judged after 10 days): 4/8

Structure (SMILES): CO[C@@H]1[C@H](OC(=O)NC(=O)C(Cl)(Cl)Cl)CC[C@]2(CO2)[C@H]1[C@@]1(C)O[C@@H]1CC=C(C)C [Example 31, O-Trichloroacetylcarbamoylfumagillol]
- Inhibition rate (judged after 10 days): 5/6

Structure (SMILES): CO[C@@H]1[C@H](OC(=O)NC(=O)c2ccccc2)CC[C@]2(CO2)[C@H]1[C@@]1(C)O[C@@H]1CC=C(C)C [Example 32, O-Benzoylcarbamoylfumagillol]
- Inhibition rate (judged after 10 days): 9/12

Structure (SMILES): C=C(C)C(=O)NC(=O)O[C@@H]1CC[C@]2(CO2)[C@@H]([C@@]2(C)O[C@@H]2CC=C(C)C)[C@@H]1OC [Example 33, O-Methacryloylcarbamoylfumagillol]
- Inhibition rate (judged after 10 days): 4/6

Structure (SMILES): CO[C@@H]1[C@H](OC(=O)NCCCl)CC[C@]2(CO2)[C@H]1[C@@]1(C)O[C@@H]1CC=C(C)C [Example 34, O-(2-Chloroethylcarbamoyl)fumagillol]
- Inhibition rate (judged after 10 days): 4/4

Structure (SMILES): CO[C@@H]1[C@H](OC(=O)Nc2ccc(Cl)cc2)CC[C@]2(CO2)[C@H]1[C@@]1(C)O[C@@H]1CC=C(C)C [Example 35, O-(p-Chlorophenylcarbamoyl)fumagillol]
- Inhibition rate (judged after 10 days): 4/8

Structure (SMILES): CO[C@@H]1[C@H](OC(=O)Nc2ccc(F)cc2F)CC[C@]2(CO2)[C@H]1[C@@]1(C)O[C@@H]1CC=C(C)C [Example 37, O-(2,4-Difluorophenylcarbamoyl)fumagillol]
- Inhibition rate (judged after 10 days): 11/11

Structure (SMILES): CO[C@@H]1[C@H](OC(=O)NS(=O)(=O)c2ccc(C)cc2)CC[C@]2(CO2)[C@H]1[C@@]1(C)O[C@@H]1CC=C(C)C [Example 38, O-(p-Toluenesulfonylcarbamoyl)fumagillol]
- Inhibition rate (judged after 10 days): 13/15

Structure (SMILES): CCN1CCN(C(=O)O[C@@H]2CC[C@]3(CO3)[C@@H]([C@@]3(C)O[C@@H]3CC=C(C)C)[C@@H]2OC)CC1 [Example 39, O-[1-(4-Ethylpiperazinyl)carbonyl]fumagillol]
- Inhibition rate (judged after 10 days): 8/8

Structure (SMILES): CO[C@@H]1[C@H](OC(=O)NC(=O)COC(C)=O)CC[C@]2(CO2)[C@H]1[C@@]1(C)O[C@@H]1CC=C(C)C [Example 40, O-Acetoxyacetylcarbamoylfumagillol]
- Inhibition rate (judged after 10 days): 6/6

Structure (SMILES): CO[C@@H]1[C@H](OC(=O)NC(=O)CSC(C)=O)CC[C@]2(CO2)[C@H]1[C@@]1(C)O[C@@H]1CC=C(C)C [Example 41, O-Acetylthioacetylcarbamoylfumagillol]
- Inhibition rate (judged after 10 days): 2/4

Structure (SMILES): CO[C@@H]1[C@H](OC(=O)NC(=O)CSc2nc3ccccc3s2)CC[C@]2(CO2)[C@H]1[C@@]1(C)O[C@@H]1CC=C(C)C [Example 42, O-(2-Benzothiazolylthioacetylcarbamoyl)fumagillol]
- Inhibition rate (judged after 10 days): 7/7

Structure (SMILES): CO[C@@H]1[C@H](OC(=O)NC(=O)CSc2cccc[n+]2[O-])CC[C@]2(CO2)[C@H]1[C@@]1(C)O[C@@H]1CC=C(C)C [Example 43, O-[(Pyridine-N-oxide-2-yl)thioacetylcarbamoyl]fumagillol]
- Inhibition rate (judged after 10 days): 7/7

Structure (SMILES): CCN(CC)CC(=O)NC(=O)O[C@@H]1CC[C@]2(CO2)[C@@H]([C@@]2(C)O[C@@H]2CC=C(C)C)[C@@H]1OC [Example 44, O-Diethylaminoacetylcarbamoylfumagillol]
- Inhibition rate (judged after 10 days): 7/7

Structure (SMILES): CO[C@@H]1[C@H](OC(c2ccccc2)c2ccccc2)CC[C@]2(CO2)[C@H]1[C@@]1(C)O[C@@H]1CC=C(C)C [Example 45, O-Diphenylmethylfumagillol]
- Inhibition rate (judged after 10 days): 8/13

Structure (SMILES): CO[C@@H]1[C@H](OCc2cccc3ccccc23)CC[C@]2(CO2)[C@H]1[C@@]1(C)O[C@@H]1CC=C(C)C [Example 46, O-(1-Naphthylmethyl)fumagillol]
- Inhibition rate (judged after 10 days): 7/10

Structure (SMILES): CO[C@@H]1[C@H](OC(=O)CCCCl)CC[C@]2(CO2)[C@H]1[C@@]1(C)O[C@@H]1CC=C(C)C [Example 49, O-(4-Chlorobutyryl)fumagillol]
- Inhibition rate (judged after 10 days): 4/5

Structure (SMILES): CO[C@@H]1[C@H](OC(=O)NC(=O)CSc2nnnn2CCN(C)C)CC[C@]2(CO2)[C@H]1[C@@]1(C)O[C@@H]1CC=C(C)C [Example 52, O-[[1-(2-Dimethylaminoethyl)tetrazol]-5-yl-thioacetylcarbamoyl]fumagillol]
- Inhibition rate (judged after 10 days): 6/8

Structure (SMILES): CO[C@@H]1[C@H](OC(=O)NC(=O)CSc2nnc(C)s2)CC[C@]2(CO2)[C@H]1[C@@]1(C)O[C@@H]1CC=C(C)C [Example 53, O-[(2-methyl-1,3,4-thiadiazol-5-yl)thioacetylcarbamoyl]fumagillol]
- Inhibition rate (judged after 10 days): 8/8

Structure (SMILES): CO[C@@H]1[C@H](OC(=O)NC(=O)CSc2cccc3ccccc23)CC[C@]2(CO2)[C@H]1[C@@]1(C)O[C@@H]1CC=C(C)C [Example 54, O-(1-Naphthalenethioacetylcarbamoyl)fumagillol]
- Inhibition rate (judged after 10 days): 5/5

Structure (SMILES): CO[C@@H]1[C@H](OC(=O)NCC[N+](C)(C)C)CC[C@]2(CO2)[C@H]1[C@@]1(C)O[C@@H]1CC=C(C)C [Example 56, O-[2-(N,N,N-Trimethylammonio)ethylcarbamoyl]fumagillol iodide]
- Inhibition rate (judged after 10 days): 4/7

Structure (SMILES): CO[C@@H]1[C@H](OC(=O)N(CCN(C)C)C(C)=O)CC[C@]2(CO2)[C@H]1[C@@]1(C)O[C@@H]1CC=C(C)C [Example 57, O-[N-Acetyl-(2-dimethylaminoethylcarbamoyl)]fumagillol]
- Inhibition rate (judged after 10 days): 6/6
